Results on 3 compounds are retold here after ChEMBL document CHEMBL5729558, “Morpholinylpyridone compounds” (2023).

A word on the IC50: it is the concentration needed to halve the response being measured.

For this assay, the target named is Phosphatidylinositol 3-kinase catalytic subunit type 3 (Homo sapiens, UniProt Q8NEB9). Kind of assay: Vps34 Biochemical Assay: Dilution series of compounds of the invention were prepared in DMSO at 100 times the final assay concentration (n1=n0/3 in 10 points). The compounds were further diluted to 4 times the assay concentration in assay buffer (Life technologies buffer Q, PV5125, diluted 5 times supplemented with 2 mM DTT and 2 mM MnCl2). 2.5 μl of the diluted compounds were added to a 384 well assay plate followed by 2.5 μl of 16.5 nM Vps34 enzyme (Life technologies, PV5126). Enzyme and compounds were pre-incubated at rt for 15 min. Then 5 μl of substrate mix containing 20 μM ATP (Life technologies, PV3227) and 200 μM PI:PS substrate (Life technologies, PV5122) in assay buffer was added to the wells containing compound and enzyme. Mixing was performed by pipetting several times. The reaction was incubated at room temperature for 1 h. Then 5 μl stop-detection mix, prepared as described in the Adapta kinase assay kit instructions (Life technologies, PV5099) containing Adapta Eu-anti-ADP antibody (2.3 nM), Alexa Fluor 647 ADP tracer (9 nM) and EDTA (30 mM) in TR-FRET buffer, was added to quench the reaction. Mixing was performed by pipetting several times. The assay plate was then incubated at room temperature for 30 min and read with Artemis micro plate reader. Percent inhibition of the compounds as compared to DMSO treated control samples was calculated. By the use of Dotmatics software compound concentration versus percent inhibition was fitted to generate IC50 values.

Structures are written as SMILES. A value given as a limit tells only on which side of the number the result lay.

Chain of Phosphatidylinositol 3-kinase catalytic subunit type 3 (Q8NEB9 whole entry): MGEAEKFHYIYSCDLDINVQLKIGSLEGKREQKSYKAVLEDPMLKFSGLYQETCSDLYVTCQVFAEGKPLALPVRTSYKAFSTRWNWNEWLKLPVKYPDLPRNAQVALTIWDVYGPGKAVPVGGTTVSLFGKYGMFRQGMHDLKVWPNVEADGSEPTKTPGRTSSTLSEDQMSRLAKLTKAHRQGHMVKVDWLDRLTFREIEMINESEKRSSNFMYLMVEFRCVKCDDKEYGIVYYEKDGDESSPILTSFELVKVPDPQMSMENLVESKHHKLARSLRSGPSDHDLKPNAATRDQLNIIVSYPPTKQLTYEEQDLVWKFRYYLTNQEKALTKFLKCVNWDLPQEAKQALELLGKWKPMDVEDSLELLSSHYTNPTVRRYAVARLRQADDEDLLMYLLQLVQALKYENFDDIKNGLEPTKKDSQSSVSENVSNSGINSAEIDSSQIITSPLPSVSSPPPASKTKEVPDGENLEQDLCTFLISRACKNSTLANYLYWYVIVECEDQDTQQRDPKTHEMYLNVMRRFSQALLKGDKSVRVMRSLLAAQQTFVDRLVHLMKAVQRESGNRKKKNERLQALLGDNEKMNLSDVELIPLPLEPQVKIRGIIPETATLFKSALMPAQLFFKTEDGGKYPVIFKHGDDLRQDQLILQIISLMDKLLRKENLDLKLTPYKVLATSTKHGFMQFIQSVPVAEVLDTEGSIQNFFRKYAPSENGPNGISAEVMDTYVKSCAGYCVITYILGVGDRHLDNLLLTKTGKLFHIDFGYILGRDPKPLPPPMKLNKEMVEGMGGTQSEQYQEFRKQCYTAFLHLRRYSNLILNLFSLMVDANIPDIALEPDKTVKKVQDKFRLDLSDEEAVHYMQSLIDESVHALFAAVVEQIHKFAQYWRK

Take `C[C@@H]1COCCN1c1cc(N2CCN(S(=O)(=O)C3CC3)CC2C(F)(F)F)[nH]c(=O)c1` (stereo partly drawn): the IC50 was less than 5 nM. For `C[C@@H]1COCCN1c1cc(N2CCN(S(=O)(=O)N3CCOCC3)CC2C(F)(F)F)[nH]c(=O)c1` (stereo partly drawn), the IC50 was less than 5 nM. Next, `C[C@@H]1COCCN1c1cc(N2CCN(S(=O)(=O)c3ccnn3C)CC2C(F)(F)F)[nH]c(=O)c1` (stereo partly drawn): less than 5 nM.
